The values below come from article PMC4904354 (Journal of Cerebral Blood Flow & Metabolism, 2015).

The nature of data set [1]: S-ketamine challenge: plasma concentration and tolerability. It counts as in vivo, human.
In data set [2] the target is NMDA receptor ion-channel. As to conditions: read-out: apparent affinity value against [^3H]MK-801 (Ki); no reference given; cited from earlier work.
The target of data set [3] is NMDA receptor. Conditions: cited from earlier work.
The conditions of data set [4]: cited from earlier work.
Data set [5] relates to NMDA receptor. As to conditions: cited from earlier work. The source holds these as a separate data set.
For data set [6], the system named is N-methyl-D-aspartate receptor. In kind it is in vivo, human. Conditions: for K1, rate constant of transport, mean (SD) / Ki, net influx rate constant, mean (SD) / VND(K1/k2), nondisplaceable distribution volume, mean (SD): 2T3k_VB model, 90 min data.
Data set [7] can be described thus: Plasma metabolite analysis of [^11C]GMOM. Conditions: for parent fraction in plasma: mean ± SD, all scans N = 15. It counts as in vivo, human.
Setting [8] is: followed by prolonged modest decrease until 90 min.
The mark [9] stands for this setting: cerebellum, after S-ketamine 0.3 mgkg^−1 i.v., N = 6.
Setting [10] is: frontal cortex, baseline, N = 9.
[11] abbreviates: occipital cortex, baseline, N = 9.
Setting [12] is: parietal cortex, baseline, N = 9.
Where [13] appears, read: striatum, after S-ketamine 0.3 mgkg^−1 i.v., N = 6.
Where [14] appears, read: temporal cortex, baseline, N = 9.
[15] abbreviates: thalamus, after S-ketamine 0.3 mgkg^−1 i.v., N = 6.
The mark [16] stands for this setting: whole brain gray matter, baseline, N = 9.

Like-named read-outs stand apart in the source and are kept apart here.

As to `CN[C@]1(c2ccccc2Cl)CCCCC1=O` [S-ketamine], in data set [1] (0.3 mgkg^−1 i.v., pseudo-steady state, healthy volunteers), the “mean plasma level of S-ketamine during the blocking scans” value is 56.2 ngml^−1. Also, the “tolerability of the administered dose during scans” value in data set [1] (0.3 mgkg^−1 i.v., healthy volunteers) is on record as “able to tolerate”. The “mean S-ketamine plasma concentration” value in data set [1] (at the end of the scan, six subjects, 0.3 mg kg^−1 i.v. pseudo-steady state) was determined as 38 ng/mL. Besides, in data set [2], the Ki is about 1000 nM.

In the case of `CSc1cccc(N(C)C(N)=Nc2cc(SCCF)ccc2Cl)c1` [[[18]F]GE-179], in data set [3], the Kd is 2.4 nM.

On to `CSc1cccc(N(C)C(N)=Nc2cc(SCC[18F])ccc2Cl)c1` [[[18]F]GE-179], for which the “log D7.4” value in data set [4] (pH 7.4) was 2.49. Moreover, in data set [5] (at 20 min postinjection), the “mean parent fraction remaining in plasma” value was 50%. In addition, in data set [5] (setting [8]), the “time of peak uptake in brain TACs” value is “around 20 min”.

`CSc1ccc(Cl)c(NC(=N)N(C)c2cccc(S[11CH3])c2)c1` [[^11C]CNS5161]: the “log P” value in data set [4] is 1.92.

As to `CSc1cccc(N(C)C(=N)Nc2cc(SC)ccc2Cl)c1` [[^11C]CNS5161], the dissociation constant Kd in data set [3] is 1.9 ± 0.3 nM.

With `CSc1ccc(Cl)c(NC(=N)N(C)c2cccc(O[11CH3])c2)c1` [[^11C]GMOM, N-(2-chloro-5-thiomethylphenyl)-N′-(3-[^11C]methoxy-phenyl)-N′-methylguanidine], the “K1, rate constant of transport, mean (SD)” value in data set [6] (setting [9]) is listed as 0.45 (0.06) min^−1; in data set [6] (cerebellum, baseline, N = 9), 0.46 (0.07) min^−1; in data set [6] (setting [10]), 0.48 (0.07) min^−1; in data set [6] (hippocampus, baseline, N = 9), 0.36 (0.07) min^−1; in data set [6] (setting [11]), 0.47 (0.04) min^−1; in data set [6] (setting [12]) it was 0.46 (0.05) min^−1. In addition, the “K1, rate constant of transport, mean (SD)” value in data set [6] (setting [13]) is on record as 0.50 (0.08) min^−1; in data set [6] (striatum, baseline, N = 9), 0.50 (0.06) min^−1; in data set [6] (setting [14]), 0.41 (0.06) min^−1; in data set [6] (setting [15]), 0.52 (0.09) min^−1; in data set [6] (thalamus, baseline, N = 9), 0.50 (0.08) min^−1; in data set [6] (setting [16]) it was 0.45 (0.05) min^−1. Further, the “Ki, net influx rate constant, mean (SD)” value in data set [6] (setting [9]) is on record as 0.005 (0.008) min^−1; in data set [6] (cerebellum, baseline, N = 9) it was 0.014 (0.010) min^−1; in data set [6] (setting [10]), 0.023 (0.014) min^−1; in data set [6] (hippocampus, baseline, N = 9), 0.028 (0.012) min^−1; in data set [6] (setting [11]), 0.021 (0.012) min^−1; in data set [6] (setting [12]), 0.021 (0.014) min^−1. Besides, the “Ki, net influx rate constant, mean (SD)” value in data set [6] (setting [13]) is listed as 0.007 (0.007) min^−1; in data set [6] (striatum, baseline, N = 9) it was 0.021 (0.015) min^−1; in data set [6] (setting [14]), 0.020 (0.012) min^−1; in data set [6] (setting [15]), 0.006 (0.007) min^−1; in data set [6] (thalamus, baseline, N = 9) it was 0.024 (0.019) min^−1; in data set [6] (setting [16]), 0.021 (0.012) min^−1. For the same compound, the “VND(K1/k2), nondisplaceable distribution volume, mean (SD)” value in data set [6] (setting [9]) was 9.37 (0.98); in data set [6] (cerebellum, baseline, N = 9), 8.43 (2.02); in data set [6] (setting [10]), 8.54 (2.00); in data set [6] (hippocampus, baseline, N = 9), 7.82 (2.25); in data set [6] (setting [11]) it was 8.53 (1.73); in data set [6] (setting [12]), 8.81 (1.98). The “VND(K1/k2), nondisplaceable distribution volume, mean (SD)” value is given as 9.88 (0.86) in data set [6] (setting [13]); 9.15 (1.85) in data set [6] (striatum, baseline, N = 9); 8.63 (2.06) in data set [6] (setting [14]); 11.32 (1.58) in data set [6] (setting [15]); 10.14 (2.56) in data set [6] (thalamus, baseline, N = 9); 8.47 (1.88) in data set [6] (setting [16]). Moreover, the “time of peak uptake in brain TACs” value in data set [6] (setting [8]) was “around 20 min”. Besides, the “parent fraction in plasma” value in data set [7] (at 5 min p.i.) is on record as 0.80 ± 0.06; in data set [7] (at 60 min p.i.), 0.21 ± 0.08. In addition, the “mean parent fraction remaining in plasma” value in data set [7] (at 20 min postinjection) worked out at 50%. In addition, in data set [7] (at 90 min p.i.), the “nonpolar metabolites fraction in plasma” value turned out to be 1.5 ± 2.0%. Also, the “log P” value in data set [4] is 2.34.

As for `CN(C(=N)Nc1cccc2ccccc12)c1cccc(I)c1` [[^123I]CNS1261], in data set [3], the Kd is 4.2 ± 0.4 nM.
